The values below come from PMC8453848, “Effect of GLPG1205, a GPR84 Modulator, on CYP2C9, CYP2C19, and CYP1A2 Enzymes: In Vitro and Phase 1 Studies” (Clinical Pharmacology in Drug Development, 2021).

Where two headings read alike, the source gives them in different places. Some results are limits rather than exact numbers.

The target of series [1] is CYP2C19 (Homo sapiens, UniProt P33261). In words: CYP2C19 inhibition, S-mephenytoin 4'-hydroxylase assay in human liver microsomes. The series is classed as in vitro ADME. On the set-up: from tissue; host or cells: in vivo, 14 healthy male subjects. As to conditions: for IC50: estimated. The procedure:
Inhibition of the biotransformation of CYP‐specific substrates by GLPG1205 was studied using human liver microsomes. Incubation was performed at 37°C with the following conditions: n = 3 for all assays; 0.1 M phosphate buffer (pH 7.4), the cofactor nicotinamide adenine dinucleotide phosphate (NADPH) incubated at 2 mM, the CYP‐specific substrate incubated at 1 nonsaturating concentration, and GLPG1205. Additional incubation was performed with (1) a 30‐minute preincubation step of GLPG1205 with microsomes before the addition of the cofactor NADPH and CYP substrate; and (2) a 30‐minute preincubation step of GLPG1205 with microsomes and the cofactor NADPH, before the addition of the CYP substrate. […] The CYP‐specific substrates were incubated per the above conditions at the following concentrations: tolbutamide, 200 μM, CYP2C9 substrate; S‐mephenytoin, 60 μM, CYP2C19 substrate; phenacetin, 40 μM, CYP1A2 substrate.
Further details of the assays used for each CYP substrate are reported in the Supplemental Methods. Metabolites of the CYP‐specific substrates (acetaminophen for CYP1A2, hydroxytolbutamide for CYP2C9, hydroxymephenytoin for CYP2C19) were quantified using LC‐MS/MS.
Enzymatic activity in the presence of GLPG1205 was expressed as a percentage of the control activity obtained with the vehicle only (ie, without GLPG1205 or reference inhibitor). Decreases in activity of less than 20% were not considered clinically relevant.
Protocol for CYP Inhibition of the biotransformation of CYP-specific substrates by GLPG1205 was studied using human liver microsomes.^7 Incubations were performed at 37°C with the following conditions: n = 3 for all assays; 0.1 M phosphate buffer pH 7.4; the cofactor β-nicotinamide adenine dinucleotide phosphate (NADPH) incubated at 2 mM; the CYP-specific substrate incubated at one non-saturating concentration; and GLPG1205. Additional incubations were performed with: 1) a 30-minute preincubation step of GLPG1205 with microsomes before addition of the cofactor NADPH and CYP substrate; and 2) a 30-minute preincubation step of GLPG1205 with microsomes and the cofactor NADPH, before addition of the CYP substrate.
The CYP-specific substrates were incubated at the following conditions: tolbutamide (200 µM; CYP2C9); S-mephenytoin (60 µM; CYP2C19); phenacetin (40 µM; CYP1A2).^8-10 Reference inhibitors (as detailed in the previous section) were incubated in parallel. […]
A two-fold dilution in D3-OH-mephenytoine at 1 µM in water with 0.1% formic acid was applied to the supernatants and then analysis was performed by LC-MS/MS with chromatographic separation. […] The quantification of the metabolite, hydroxymephenytoin, was performed in MRM mode using the 235.1 to 150.2 transition. […]

The conditions of series [2]: cited from earlier work.
For series [3], the target named is T1, CYP1A2 (Homo sapiens, UniProt P05177).
T1 sequence (P05177 1-516): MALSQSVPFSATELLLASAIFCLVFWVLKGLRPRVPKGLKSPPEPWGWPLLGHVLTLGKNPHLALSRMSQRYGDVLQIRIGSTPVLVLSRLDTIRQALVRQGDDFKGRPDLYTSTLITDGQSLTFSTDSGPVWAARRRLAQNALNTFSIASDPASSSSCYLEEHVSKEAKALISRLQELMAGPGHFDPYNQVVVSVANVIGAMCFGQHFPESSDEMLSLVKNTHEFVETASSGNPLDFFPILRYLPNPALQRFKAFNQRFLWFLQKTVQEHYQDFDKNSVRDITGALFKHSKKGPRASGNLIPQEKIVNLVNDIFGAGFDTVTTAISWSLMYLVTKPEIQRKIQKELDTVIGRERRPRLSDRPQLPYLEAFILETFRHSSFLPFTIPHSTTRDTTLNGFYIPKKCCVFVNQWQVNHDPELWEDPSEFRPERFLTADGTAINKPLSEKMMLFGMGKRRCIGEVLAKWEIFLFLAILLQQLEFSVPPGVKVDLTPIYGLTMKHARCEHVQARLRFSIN
In words: CYP1A2 inhibition, phenacetin O-deethylase assay in human liver microsomes. Type of series: in vitro ADME. As to conditions: for IC50: estimated. More on the design: from tissue; host or cells: in vivo, 14 healthy male subjects.
Experimental: Inhibition of the biotransformation of CYP‐specific substrates by GLPG1205 was studied using human liver microsomes. Incubation was performed at 37°C with the following conditions: n = 3 for all assays; 0.1 M phosphate buffer (pH 7.4), the cofactor nicotinamide adenine dinucleotide phosphate (NADPH) incubated at 2 mM, the CYP‐specific substrate incubated at 1 nonsaturating concentration, and GLPG1205. Additional incubation was performed with (1) a 30‐minute preincubation step of GLPG1205 with microsomes before the addition of the cofactor NADPH and CYP substrate; and (2) a 30‐minute preincubation step of GLPG1205 with microsomes and the cofactor NADPH, before the addition of the CYP substrate. GLPG1205 was tested at 6 concentrations: 0.5, 1, 5, 10, 50, and 100 μM (0.19, 0.38, 1.89, 3.78, 18.9, and 37.8 μg/mL, respectively), for each condition. The CYP‐specific substrates were incubated per the above conditions at the following concentrations: tolbutamide, 200 μM, CYP2C9 substrate; S‐mephenytoin, 60 μM, CYP2C19 substrate; phenacetin, 40 μM, CYP1A2 substrate.
GLPG1205 was tested at 6 concentrations: 0.5, 1, 5, 10, 50 and 100 µM (0.19, 0.38, 1.89, 3.78, 18.9, 37.8 µg/mL, respectively).
The CYP-specific substrates were incubated at the following conditions: tolbutamide (200 µM; CYP2C9); S-mephenytoin (60 µM; CYP2C19); phenacetin (40 µM; CYP1A2).^8-10 Reference inhibitors (as detailed in the previous section) were incubated in parallel. For all assays, the following controls were incubated in parallel: 1) with CYP substrate, without microsomes, with NADPH, without inhibitor (to check for substrate stability); 2) with CYP substrate, with microsomes, without NADPH, without inhibitor (to check for non-NADPH-dependent metabolism of substrate); and 3) without substrate, with microsomes, with NADPH, with test compound or reference inhibitor (to check for potential analytical interference).
At the end of the incubation period, the reaction was stopped with the addition of 0.15 M phosphoric acid (300 µL); proteins were allowed to precipitate for a minimum of 1 hour at approximately 4°C. After centrifugation at 3200 g for 20 minutes at approximately + 4°C, supernatants were collected.

The mark [4] stands for this setting: once‐daily oral dosing for 14 days.

Chain of CYP2C19 (P33261 whole entry): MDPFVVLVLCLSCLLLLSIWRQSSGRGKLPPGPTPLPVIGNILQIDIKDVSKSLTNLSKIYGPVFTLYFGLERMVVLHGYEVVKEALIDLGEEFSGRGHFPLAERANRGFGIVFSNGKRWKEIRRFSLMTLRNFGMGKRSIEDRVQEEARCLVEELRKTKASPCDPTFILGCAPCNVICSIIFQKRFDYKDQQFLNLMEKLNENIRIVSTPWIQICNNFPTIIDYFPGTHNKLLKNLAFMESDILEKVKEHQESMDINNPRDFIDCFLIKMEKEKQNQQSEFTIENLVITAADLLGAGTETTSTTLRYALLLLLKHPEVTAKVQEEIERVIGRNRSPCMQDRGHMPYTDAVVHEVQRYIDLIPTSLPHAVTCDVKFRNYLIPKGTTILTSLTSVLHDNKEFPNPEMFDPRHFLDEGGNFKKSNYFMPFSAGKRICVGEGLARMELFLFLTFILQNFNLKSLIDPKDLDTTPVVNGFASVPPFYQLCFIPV

Regarding `O=c1nc(OC[C@@H]2COCCO2)cc2n1CCc1cc(C#CC3CC3)ccc1-2` [GLPG1205, 9‐cyclopropylethynyl‐2‐[(S)‐1‐(1,4)dioxan‐2‐ylmethoxy]‐6,7‐dihydropyrimido[6,1‐a]isoquinolin‐4‐one], the “inhibition of CYP2C19 in words” value in series [1] (GLPG1205 50‐100 μM) is “moderate and reversible”. In addition, the IC50 in series [1] (human liver microsomes, read-out: IC50 for inhibition of CYP2C19) was not below 50 µM; in series [1] (equivalent of ≥50 μM, read-out: IC50 for inhibition of CYP2C19, equivalent), not below 49.9 µM; in series [3] (human liver microsomes, read-out: IC50 for inhibition of CYP1A2) it was not below 100 µM; in series [3] (equivalent of ≥100 μM, read-out: IC50 for inhibition of CYP1A2, equivalent), not below 99.9 µM. This molecule also gave an inhibition at 20 min in series [1] (human, liver microsomes, pH 7.4, probe S-mephenytoin 60 µM, GLPG1205 50‐100 μM without preincubation, S‐mephenytoin 60 μM) of 44.2 to 49.3%. Also, the “median time to maximum plasma concentration (tmax)” value in series [2] (healthy male subjects) was 4 h. Besides, the maximum tolerated dose in series [2] (healthy subjects) was 100 mg once a day. Further, in series [2] (multiple doses of GLPG1205 100 mg once a day, steady state), the Cmax is 3.91 µg/mL. Moreover, the “day by which steady‐state plasma concentration was reached” value in series [2] (setting [4]) is not above 10 days. The “elimination half‐life, average” value in series [2] (setting [4]) is 88.6 h. In series [3] (GLPG1205 50‐100 μM), the “inhibition of CYP1A2 in words” value is listed as “Weak”. The inhibition at 7 min, 100 µM in series [3] (human, liver microsomes, pH 7.4, probe phenacetin 40 µM, GLPG1205 100 μM following a 30‐minute preincubation with NADPH) is 52.9%. The molecule also came in with an inhibition at 7 min in series [3] (human, liver microsomes, pH 7.4, probe phenacetin 40 µM, GLPG1205 50‐100 μM, phenacetin 40 μM) of 20.4 to 38%.

The term IC50 denotes the midpoint of a concentration-inhibition curve. For orientation: inhibition means the percentage by which the read-out fell short of the control. High values mean a strong effect, low ones a weak effect. A word on the Cmax: it is the maximum level reached in the sampled fluid or tissue.
